molecular target: T1, interaction between HIF-1α and p300 (His-HIF-1α / GST-p300) (Homo sapiens, UniProt Q09472+Q16665); assay: Primary assay: fluorescence-based (DELFIA) screening assay for inhibition of the HIF-1α/p300 interaction; assay type: binding; conditions: not given
T1 construct: corresponding to the C-terminal 390 amino acids into vector pET28a; A plasmid containing the N-terminal 595 amino acids of human p300; made in house; host or cells: E. coli
Protocol: Candidate compounds were assessed for their ability to inhibit the interaction between HIF-1α and p300 using a high throughput fluorescence-based screening assay (DELFIA) as follows.
A plasmid expressing His-HIF-1α fusion protein was constructed by PCR, by amplifying and subcloning a fragment of the human HIF-1α cDNA (NCBI GenBank, accession number AH006957) corresponding to the C-terminal 390 amino acids into vector pET28a (Novagen®, Madison, Wis., USA). A plasmid containing the N-terminal 595 amino acids of human p300 (NCBI GenBank, accession number U01877) inserted into vector pGEX2T (Pharmacia®, Little Chalfont, Bucks, UK) was used for the production of GST-p300 fusion protein. The recombinant proteins were produced in E. coli. His-HIF-1α was purified using Ni-NTA agarose beads, according to manufacture's method (Qiagen®, Crawley, West Sussex, UK). GST-p300 was purified using Glutathione-sepharose beads (Amersham Pharmacia®, Little Chalfont, Bucks, UK) according to manufacturer's instructions. A titration of every batch of p300 was carried out in order to determine the optimum dilution of the protein to obtain at least a 10:1 ratio signal to noise in the binding assay.
The assay was performed in 96-well Polysorb plates (Nalge Nunc International®, Rochester, N.Y., USA) as follows. Plates were coated with His-HIF-1α at 50 ng/well in […] and incubated overnight at 4° C. The plates were then washed 3 times with deionized water and blocked with 100 μL/well 3% BSA in PBS for 3 hours at 4° C. After washing 3 times as before, GST-p300 was added at the appropriate dilution (1:800 in this screening) in binding buffer (50 mM HEPES pH 7.5, 50 mM NaCl, 0.1% BSA, 0.5 mM DTT). The reaction was incubated at room temperature for 1 hour. Plates were washed 3 times and anti-GST Europium-conjugated antibody (from Wallac®, Turku, Finland) was added at 50 ng/well in […]. After 45 minutes incubation, plates were washed 3 times as before. Then, 100 μL/well enhancement solution (from Wallac®, Catalog No. 1244-105) was added and allowed to react for 15 minutes at room temperature. Plates were read on a Victor 2 plate reader (from Wallac®).

T1 sequence (Q16665 437-826 limits assumed): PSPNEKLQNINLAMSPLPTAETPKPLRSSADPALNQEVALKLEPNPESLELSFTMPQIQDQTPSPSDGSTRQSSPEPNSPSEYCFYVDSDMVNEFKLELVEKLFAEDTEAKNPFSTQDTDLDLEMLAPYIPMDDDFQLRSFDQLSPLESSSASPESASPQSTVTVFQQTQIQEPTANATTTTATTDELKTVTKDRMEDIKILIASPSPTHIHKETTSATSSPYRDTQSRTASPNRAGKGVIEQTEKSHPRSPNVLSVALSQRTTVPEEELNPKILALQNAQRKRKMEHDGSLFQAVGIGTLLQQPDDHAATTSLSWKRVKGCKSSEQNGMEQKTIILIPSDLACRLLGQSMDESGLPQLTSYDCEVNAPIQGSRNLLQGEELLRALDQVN
T1 sequence (Q09472 1-595 limits assumed): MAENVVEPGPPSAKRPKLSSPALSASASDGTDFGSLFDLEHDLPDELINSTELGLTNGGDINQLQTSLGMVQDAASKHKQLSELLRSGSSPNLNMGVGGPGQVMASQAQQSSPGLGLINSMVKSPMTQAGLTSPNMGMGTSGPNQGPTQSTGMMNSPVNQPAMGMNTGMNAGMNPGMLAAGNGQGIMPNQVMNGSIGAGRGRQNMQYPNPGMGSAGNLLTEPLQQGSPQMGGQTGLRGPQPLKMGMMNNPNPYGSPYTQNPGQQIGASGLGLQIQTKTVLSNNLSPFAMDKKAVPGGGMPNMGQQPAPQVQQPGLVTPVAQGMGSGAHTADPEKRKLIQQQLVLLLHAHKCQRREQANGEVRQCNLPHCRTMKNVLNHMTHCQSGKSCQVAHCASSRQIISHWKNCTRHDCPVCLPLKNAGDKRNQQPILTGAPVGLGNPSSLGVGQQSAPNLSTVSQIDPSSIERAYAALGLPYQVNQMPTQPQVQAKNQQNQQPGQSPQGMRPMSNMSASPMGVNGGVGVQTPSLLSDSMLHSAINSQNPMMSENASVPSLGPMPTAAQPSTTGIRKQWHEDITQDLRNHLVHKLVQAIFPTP

SMILES | IC50 [µM]
O=C1NC(=O)C(=Cc2c(F)cccc2Cl)C(=O)N1 [PX069119] | 250
COc1cc(C=C2C(=O)NC(=O)NC2=O)c([N+](=O)[O-])cc1OCc1ccccc1 [PX069153] | 200
O=C1NC(=O)C(=Cc2ccc(Cl)c(Cl)c2)C(=O)N1 [PX072002] | 225
COc1ccc(C=C2C(=O)NC(=O)NC2=O)cc1OC [PX072004] | 250
COc1cc(C=C2C(=O)NC(=O)NC2=O)ccc1O [PX072008] | 300
CCOc1ccc(C=C2C(=O)NC(=O)NC2=O)cc1 [PX072012] | 175
COc1ccc(C=C2C(=O)NC(=O)NC2=O)c(Cl)c1OC [PX074728] | 125
O=C1NC(=O)C(=Cc2ccc3c(c2)OCO3)C(=O)N1 [PX075240] | 100
O=C1NC(=O)C(=Cc2cccc(OCc3ccccc3)c2)C(=O)N1 [PX075245] | 125
CCOc1ccccc1C=C1C(=O)NC(=O)NC1=O [PX075248] | 450
COc1ccc(OC)c(C=C2C(=O)NC(=O)NC2=O)c1 [PX075257] | 350
COc1ccc(C=C2C(=O)NC(=S)NC2=O)cc1OC [PX075262, 5-(3,4-Dimethoxy-benzylidene)-2-thioxo-dihydro-pyrimidine-4,6-dione] | 65
O=C1NC(=O)C(=Cc2ccccc2Cl)C(=O)N1 [PX083677] | 400
O=C1NC(=O)C(=Cc2ccc(Cl)cc2Cl)C(=O)N1 [PX089367] | 200
O=C1NC(=O)C(=Cc2ccccc2)C(=O)N1 [PX089368] | 350
O=C1NC(=O)C(=CC2CC=CCC2)C(=O)N1 (stereo not drawn) [PX089369] | 225
O=C1NC(=O)C(=C/C=C/c2ccccc2)C(=O)N1 [PX089370] | 225
COc1cccc(C=C2C(=O)NC(=O)NC2=O)c1OC [PX089371] | 400
O=C1NC(=O)C(=Cc2ccc(O)c(O)c2)C(=O)N1 [PX089374] | 230
COc1ccc(C=C2C(=O)NC(=O)NC2=O)cc1 [PX089375] | 200
O=C1NC(=O)C(=Cc2cccc(O)c2)C(=O)N1 [PX089376] | 200
O=C1NC(=O)C(=Cc2ccc(O)cc2)C(=O)N1 [PX089377] | 400
O=C1NC(=S)NC(=O)C1=C/C=N/Nc1ccccc1 [PX089619] | 180
O=C1NC(=O)C(=C/C=N/Nc2ccccc2)C(=O)N1 [PX089620] | 80
CC(=O)Nc1ccc(C=C2C(=O)NC(=S)NC2=O)cc1 [PX089632, N-[4-(4,6-Dioxo-2-thioxo-tetrahydro-pyrimidin-5-ylidenemethyl)-phenyl]-acetamide] | 15
O=C1NC(=S)NC(=O)C1=Cc1cccs1 [PX089638] | 130
O=C1NC(=S)NC(=O)C1=Cc1ccc(Cl)cc1 [PX089640, 5-(4-Chloro-benzylidene)-2-thioxo-dihydro-pyrimidine-4,6-dione] | 100
COc1ccc(C=C2C(=O)N(c3ccccc3)C(=S)N(c3ccccc3)C2=O)cc1OC [PX089646] | 100
CCN(CC)c1ccc(C=C2C(=O)N(c3ccccc3)C(=S)N(c3ccccc3)C2=O)cc1 [PX089647] | 100
COc1ccc(C=C2C(=O)NC(=S)NC2=O)cc1OCc1ccccc1 [PX105990, 5-(3-Benzyloxy-4-methoxy-benzylidene)-2-thioxo-dihydro-pyrimidine-4,6-dione] | 20

same assay, conditions: read-out: Primary Assay Inhibition IC50

SMILES | IC50 [µM]
COc1cccc(-c2nc3c(=N)n(-c4ccc(Cl)cc4)c(=O)[nH]c3c(=O)[nH]2)c1O [P2081958] | 125
N=c1c2nc(-c3ccccc3)[nH]c(=O)c2[nH]c(=O)n1-c1ccccc1 [P2082132] | 125
N=c1c2nc(-c3ccc4c(c3)OCO4)[nH]c(=O)c2[nH]c(=O)n1-c1ccc(Cl)cc1 [P2082202] | 250
COc1ccc(-c2nc3c(=N)n(-c4cccc(C(F)(F)F)c4)c(=O)[nH]c3c(=O)[nH]2)cc1OC [P2082229] | 125
Cn1c(=O)c2c(ncn2CC(O)CN2CCN(c3cccc(Cl)c3)CC2)n(C)c1=O (stereo not drawn) [P2082796] | 150
COc1ccc(-c2nc3c(=N)n(-c4ccc(Cl)cc4)c(=O)[nH]c3c(=O)[nH]2)cc1 [PX081770] | 125
